The NIST ThermoML archive (doi:10.1016/j.tca.2013.02.010)

Legend:
[1] = xn = mol fraction of the nth substance listed; details: 308.15 K, 101 kPa, Liquid, Direct dilatometry
[2] = excess molar enthalpy (molar enthalpy of mixing); xn = mol fraction of the nth substance listed; details: 101 kPa, Liquid, Flow calorimetry
[3] = 101.33 kPa, Liquid, Pycnometric method
[4] = refractive index (Na D-line) (dimensionless); details: 298.15 K; 101.33 kPa; Liquid; Standard Abbe refractometry

NC=O [formamide] + CC(C)O
[1]
Details	excess molar volume [m3/mol]
x1 = 0.0455	-3.2e-08
x1 = 0.1021	-6.4e-08
x1 = 0.1327	-7.9e-08
x1 = 0.1725	-1.05e-07
x1 = 0.2155	-1.34e-07
x1 = 0.2692	-1.69e-07
x1 = 0.3269	-2.06e-07
x1 = 0.3535	-2.27e-07
x1 = 0.3867	-2.48e-07
x1 = 0.4245	-2.71e-07
x1 = 0.485	-3e-07
x1 = 0.5191	-3.13e-07
x1 = 0.5729	-3.28e-07
x1 = 0.6237	-3.32e-07
x1 = 0.6951	-3.31e-07
x1 = 0.7543	-3.11e-07
x1 = 0.7907	-2.9e-07
x1 = 0.825	-2.61e-07
x1 = 0.8735	-2e-07
x1 = 0.8999	-1.71e-07
x1 = 0.9331	-1.18e-07
x1 = 0.9745	-5.1e-08

[2]
Details	excess molar enthalpy [kJ/mol]
298.15 K, x1 = 0.056	0.246
298.15 K, x1 = 0.073	0.308
298.15 K, x1 = 0.099	0.403
298.15 K, x1 = 0.125	0.466
298.15 K, x1 = 0.162	0.56
298.15 K, x1 = 0.2	0.623
298.15 K, x1 = 0.253	0.699
298.15 K, x1 = 0.291	0.731
298.15 K, x1 = 0.329	0.757
298.15 K, x1 = 0.4	0.776
298.15 K, x1 = 0.468	0.772
298.15 K, x1 = 0.537	0.749
298.15 K, x1 = 0.597	0.711
298.15 K, x1 = 0.662	0.657
298.15 K, x1 = 0.702	0.618
298.15 K, x1 = 0.728	0.58
298.15 K, x1 = 0.766	0.529
298.15 K, x1 = 0.812	0.452
298.15 K, x1 = 0.849	0.382
298.15 K, x1 = 0.878	0.322
298.15 K, x1 = 0.901	0.266
298.15 K, x1 = 0.941	0.17
308.15 K, x1 = 0.0666	0.334
308.15 K, x1 = 0.0916	0.432
308.15 K, x1 = 0.1166	0.518
308.15 K, x1 = 0.1501	0.617
308.15 K, x1 = 0.1812	0.692
308.15 K, x1 = 0.229	0.789
308.15 K, x1 = 0.2702	0.846
308.15 K, x1 = 0.3082	0.896
308.15 K, x1 = 0.3666	0.937
308.15 K, x1 = 0.425	0.961
308.15 K, x1 = 0.4958	0.961
308.15 K, x1 = 0.5624	0.937
308.15 K, x1 = 0.629	0.876
308.15 K, x1 = 0.6832	0.803
308.15 K, x1 = 0.7124	0.757
308.15 K, x1 = 0.7503	0.685
308.15 K, x1 = 0.7958	0.585
308.15 K, x1 = 0.8374	0.48
308.15 K, x1 = 0.8708	0.39
308.15 K, x1 = 0.8874	0.337
308.15 K, x1 = 0.9082	0.282
308.15 K, x1 = 0.954	0.141

CC(C)O [propan-2-ol]
[3]
Details	mass density [kg/m3]
298.15 K	781.25
308.15 K	772.3

Details	refractive index
[4]	1.3753

NC=O [formamide]
[3]
Details	mass density [kg/m3]
298.15 K	1129.04
308.15 K	1120.45

Details	refractive index
[4]	1.4461
